Measurements taken from US4575550A, “Platinum complexes” (Shionogi & Co., Ltd., priority 1981, dated 1986).

What was measured:
Sarcoma 180 tumor cells [1] = experiment: Antitumor activity against Sarcoma-180 (Experiment 1, intraperitoneal for 5 days); type: in vivo, DS mice; settings: i.p.; for ED50 (effective dose which inhibits the growth of tumors by 50%): 14400 min
Protocol: (§1) Sarcoma 180 tumor cells (5×10^6 cells) are inoculated to DS mice (6 to 8 mice are employed in each test group) subcutaneously, and a predetermined amount of the test compounds is administered intraperitoneally for 5 days continuously from the next day of the inoculation.

[2] = system: Leukemia L1210 ascites cells; experiment: Antitumor activity against L1210 (Experiment 2, intraperitoneal); type: in vivo, BDF1 mice; settings: i.p.
Protocol: Leukemia L1210 ascites cells (10^5 cells) in mice are intraperitoneally inoculated to BDF1 mice (4 to 10 mice are employed in each test group), and on the next day a predetermined amount of the test compounds is administered intraperitoneally. The solvent for injection consists of 0.9% NaCl, 0.4% Polysorbate 80, 0.5% CMC, and 0.5% benzyl alcohol suspension.
From the average survival days (a) in the test group and those (b) of the untreated control group, the increase of lifespan (ILS) is calculated according to the following expression. [formula]

Sarcoma 180 tumor cells [3] = experiment: Antitumor activity against Sarcoma-180 (Experiment 4, intravenous for 5 days); type: in vivo, DS mice; settings: i.v., 5% glucose solution; for ED50: 14400 min
Protocol: as §1
The test was carried out in the same manner as in Experiment 1, wherein the test compounds were administered intravenously for 5 days.
The evaluation was made in the same manner as in Experiment 1.

kidney = experiment: Nephro-toxicity (Experiment 3, once intraperitoneally); type: in vivo, male Sprague Dawley rats; parameters: key: .uparw.: increase; slight increase; .dwnarw.: decrease; ±: no change; settings: once i.p., (A) 10 mg/kg, (B) 5 mg/kg, solvent 1: 5% glucose
Source text: Seven weeks-old male Sprague Dawley rats are separately accommodated in metabolic cages of stainless steel, and solid feed (Clea Japan, INC., CA-1 for breeding) and water are given so that they can take them freely. They are adapted for 3 days and then the test compounds are once administered to rats intraperitoneally at 10:00 a.m. […] The urine excreted during a period of 10 a.m. on the day of administration to 10 a.m. on the next day is defined as urine of the first day; on the urine of the 0-4th days the volume of urine excreted, creatinine, osmotic pressure, urinary enzyme N-acetyl-β-D-glucosaminidase (NAG), and lysozyme (LEZ) are measured, and further urinary protein and urinary sugar are examined with Labstix®. In the morning on the 5th day the rats are anatomized under anesthesia with Ouropan-Soda®(Shionogi & Co., Ltd.; Hexobarbital sodium), and the blood and pathologic specimens of the kidney and the liver are collected in order to determine the level of plasma urea nitrogen and creatinine, and osmotic pressure.

[4] = 0.9% NaCl, 0.4% Polysorbate 80, 0.5% CMC, 0.5% benzyl alcohol suspension
[5] = dose 2 × 1 (dose unit not given)
[6] = dose 5 × 1 (dose unit not given)
[7] = dose 10 × 1 (dose unit not given)
[8] = dose 20 × 1 (dose unit not given)

Compound | ED50 (effective dose which inhibits the growth of tumors by 50%) (Sarcoma 180 tumor cells [1]; [4]) [mg/kg] | ED50 (effective dose which inhibits the growth of tumors by 50%) (Sarcoma 180 tumor cells [1]; solvent 5% glucose solution) [mg/kg] | increase of lifespan (ILS) [2, 5] [%] | increase of lifespan (ILS) [2, 6] [%] | increase of lifespan (ILS) [2, 7] [%] | increase of lifespan (ILS) [2, 8] [%] | ED50 (Sarcoma 180 tumor cells [3]) [mg/kg] | CI (curative index) (Sarcoma 180 tumor cells [3]) | LD50 (Sarcoma 180 tumor cells [3]) [mg/kg] | other results
N.N.[Cl][Pt][Cl] [(B), Cisplatin, reference compound] | 7.3 | 5.8 | 11 | 29 | > 84 | -26 | 4.5 | – | – | –
N.N.O=C1COCC(=O)[O][Pt][O]1 [D, Diglycolato-cis-diammineplatinum(II)] | – | – | – | – | – | – | 24.1 | 3.3 | 80.0 | –
Glycerato-cis-diammineplatinum(II) | – | – | – | – | – | – | 44 | 4.2 | 186.6 | –
N.N.O=C1C[O][Pt][O]1 [C, Glycolato-cis-diammineplatinum(II)] | – | – | – | – | – | – | 18.7 | – | – | –
Glucuronato-cis-diammineplatinum(II) [(A)] | 34 | 33.4 | 4 | 12 | 14 | > 55 | 63.4 | 2.9 | 186 | CI (curative index) (Sarcoma 180 tumor cells [1]; [4]): 3.3; LD50 (50% lethal dose) (Sarcoma 180 tumor cells [1]; [4]): 113.5 mg/kg; CI (curative index) (Sarcoma 180 tumor cells [1]; solvent 5% glucose solution): 2.8; LD50 (50% lethal dose) (Sarcoma 180 tumor cells [1]; solvent 5% glucose solution): 93.4 mg/kg; Body Weight (g) (kidney): ±; Creatinine Clearance (kidney): ±; Excrement of Creatinine (mg/24 hrs./100 g BW) (kidney): ±; Excrement of Solute (mOsm/24 hrs./100 g BW) (kidney): ±; Kidney Weight (kidney): ±; LEZ (urinary lysozyme) (kidney): ±; Liver Weight (kidney): ±; Osmotic Pressure of Urine (mOsm/kg) (kidney): ±; Urinary Glucose (kidney): ±; Urinary Protein (kidney): ±; Volume of Urine (ml/24 hrs.) (kidney): ±; Plasma Creatinine (kidney; 5th day): ±; Plasma Osmotic Pressure (kidney; 5th day): ±; Plasma Urea Nitrogen (kidney; 5th day): ±
